Source: patent US20160374944A1, “COMPOSITIONS AND METHODS FOR TREATING AND PREVENTING CANCER BY TARGETING AND INHIBITING CANCER STEM CELLS” (priority 2011, published 2016)

Columns and labels:
Type in all cases: cell-based, human
Pancreatic CSCs [1] = experiment: colony formation in soft agar; conditions: 21 days
Description: (§1) (A) Pancreatic CSCs were seeded in suspension and treated with EGCG (0-60 μM) for 7 days. Pictures of spheroids formed in suspension were taken by a microscope. (B) Pancreatic CSCs were seeded in suspension and treated with EGCG (0-60 μM) for 7 days. At the end of incubation period, spheroids were collected, and dissociated with Accutase (Innovative Cell Technologies, Inc.). For secondary spheroids, cells were reseeded and treated with EGCG (0-60 μM) for 7 days. Cell viability was measured by trypan blue assay. […] Pancreatic CSCs were seeded in soft agar and treated with various doses of EGCG and incubated at […] for 21 days. At the end of incubation period, colonies were counted.
(§2) (A) Effects of EGCG and quercetin on spheroid and colony formation. […] CSCs were seeded in suspension and treated with EGCG (0-60 μM) with or without quercetin (20 μM) for 7 days. At the end of incubation period, all the spheroids were collected and resuspended. Cell viability was measured by trypan blue assay. […] Pancreatic CSCs were seeded in soft agar and treated with various doses of EGCG (0-60 μM) with or without quercetin (20 μM) and incubated at […] for 21 days. At the end of incubation period, colonies were counted. […] (B) Effects of EGCG and quercetin on invasion and migration. Upper panel, Matrigel invasion assay. CSCs were plated onto the Matrigel-coated membrane in the top chamber of the transwell and treated with EGCG (0-60 μM) with or without quercetin (20 μM) for 48 hrs. Cells invaded to the lower chambered were fixed with methanol, stained with crystal violet and counted. […] Lower panel, Transwell migration assay. Pancreatic CSCs were plated in the top chamber of the transwell and treated with EGCG (0-60 μM) with or without quercetin (20 μM) for 48 hrs. Cells migrated to the lower chambered were fixed with methanol, stained with crystal violet and counted. […] CSCs were seeded in suspension and treated with EGCG (0-60 μM) with or without quercetin (20 μM) for 7 days. At the end of incubation period, all the spheroids were collected.
At the end of incubation period, all the spheroids were collected and resuspended. Cell viability was measured by trypan blue assay. […] At the end of incubation period, colonies were counted.

Prostate CSCs = experiment: cell viability, trypan blue, Vi-CELL analyzer; conditions: 3 days
Description: Prostate CSCs were treated with resveratrol (0-20 μM), curcumin (0-20 μM), honokiol (0-20 μM) and diallyl trisulphide (0-10 μM) for 3 days, and cell viability was measured by staining with trypan blue using Vi-CELL analyzer (Beckman Counter).
Prostate CSCs were treated with sulforaphane (0-20 μM), rottlerin (0-5 μM), EGCG (0-40 μM) and embelin (0-1 μM) for 3 days, and cell viability was measured by staining with trypan blue using Vi-CELL analyzer (Beckman Counter).
Prostate CSCs were treated with resveratrol (0-20 μM), curcumin (0-20 μM), honokiol (0-20 μM), and diallyl trisulphide (0-10 μM) for 3 days and cell viability was measured by staining with trypan blue using Vi-CELL analyzer. The results of those studies are illustrated in FIG. 25.
Prostate CSCs were treated with sulforaphane (0-20 μM), rottlerin (0-5 μM), EGCG (0-40 μM), and embelin (0-1 μM) for 3 days and cell viability was measured by staining with trypan blue using Vi-CELL analyzer. The results of those studies are illustrated in FIG. 26.

Pancreatic CSCs [2] = experiment: spheroid formation and cell viability in spheroids (trypan blue); conditions: for cell viability in spheroids: EGCG 0-60 μM with or without quercetin 20 μM
Description: (A) Pancreatic CSCs were grown in six-well ultralow attachment plates (Corning Inc., Corning, N.Y.) at a density of 1,000 cells/ml in DMEM supplemented with 1% N2 Supplement (Invitrogen), 2% B27 Supplement (Invitrogen), 20 ng/ml human platelet growth factor (Sigma-Aldrich), 100 ng/ml EGF (Invitrogen) and 1% antibiotic-antimycotic (Invitrogen) at 37° C. in a humidified atmosphere of 95% air and 5% CO2 and treated with rottlerin (0-2 μM) for 7 days to obtain primary spheroids. At the end of incubation period, spheroids were collected, reseeded and treated with rottlerin for another week to obtain secondary spheroids. (B) Cell viability in spheroids was measured by trypan blue assay at the end of 7 and 14 days from the above experiment.
as §1
(A) Pancreatic CSCs were treated with EGCG (0-60 μM) for 36 h. At the end of incubation period, cells were harvested and the expression of Nanog, Sox-2, c-Myc and Oct-4 was measured by the q-RT-PCR. […] Pancreatic CSCs were transduced with either scrambled shRNA or Nanog shRNA expressing lentiviral vector (pLKO.1), and cell lysates were collected and western blot analysis was performed using anti-Nanog antibody (data not shown). CSC/scrambled and CSC/Nanog shRNA were seeded as described above and treated with EGCG (0-60 μM). After 7 days, spheroids were collected and cell suspensions were prepared and viable cells were counted by trypan blue assay.
as §2

[3] = EGCG 0-60 μM with or without quercetin 20 μM

| Compound | colony formation (Pancreatic CSCs [1]; [3]) | growth of colonies (Pancreatic CSCs [1]; EGCG) | cell viability (Prostate CSCs) | CSC viability in spheroids (Pancreatic CSCs [2]; CSCs transduced with Nanog shRNA, EGCG 0-60 μM, 7 days) | CSC viability in spheroids (Pancreatic CSCs [2]; CSCs transduced with scrambled shRNA, EGCG 0-60 μM, 7 days) | cell viability in spheroids (Pancreatic CSCs [2]; 7 days) | growth (size) of spheroids in suspension (Pancreatic CSCs [2]; EGCG 0-60 μM, 7 days) | CSC viability in primary and secondary spheroids (Pancreatic CSCs [2]; EGCG 0-60 μM, 7 days each, trypan blue) | size of primary and secondary spheroids in suspension (Pancreatic CSCs [2]; rottlerin 0-2 μM, 7 and 14 days) | cell viability of spheroids (Pancreatic CSCs [2]; rottlerin 0-2 μM, 7 and 14 days, trypan blue) | colony formation (Pancreatic CSCs [1]; SFN with or without quercetin) |
| --- | --- | --- | --- | --- | --- | --- | --- | --- | --- | --- | --- |
| O=C(O[C@@H]1Cc2c(O)cc(O)cc2O[C@@H]1c1cc(O)c(O)c(O)c1)c1cc(O)c(O)c(O)c1 [EGCG, epigallocatechin gallate] | inhibited cell viability in spheroids, colony formation, migration and invasion by CSCs in a dose-dependent manner | inhibited the growth of colonies in a dose-dependent manner | inhibit cell viability | further enhanced the antiproliferative effects | inhibited CSC's viability in spheroids transduced with Nanog-scrambled shRNA in a dose-dependent manner | inhibited cell viability in spheroids, colony formation, migration and invasion by CSCs in a dose-dependent manner | inhibited the growth (size) of spheroids in suspension in a dose dependent manner | inhibited CSC's viability in primary and secondary spheroids in a dose-dependent manner | – | – | – |
| CC(=O)c1c(O)c(C)c(O)c(Cc2c(O)c3c(c(C(=O)/C=C/c4ccccc4)c2O)OC(C)(C)C=C3)c1O [rottlerin] | – | – | inhibit cell viability | – | – | – | – | – | inhibited the size | inhibited | – |
| C[S+]([O-])CCCCN=C=S (stereo not shown) [sulforaphane] | – | – | inhibit cell viability | – | – | – | – | – | – | – | inhibited the cell viability and colony formation of pancreatic CSCs in a dose-dependent manner |
| O=c1c(O)c(-c2ccc(O)c(O)c2)oc2cc(O)cc(O)c12 [quercetin] | effective alone | – | – | – | – | effective alone | – | – | – | – | effective alone |
